What was measured:
[1] = tested on: LAD ligation model of ischemic heart failure in mice; assay: LAD ligation ischemic heart failure model, echocardiography-derived FS; type: in vivo, mouse; conditions: infusion 28 days
[2] = tested on: LAD ligation model of ischemic heart failure in mice; assay: Ex vivo isolated working heart preparation; type: in vivo, mouse; conditions: infusion 28 days
[3] = tested on: CSQ-overexpressing mice with heart failure; assay: CSQ-overexpressing mouse model of heart failure; type: in vivo
[4] = 24 h
Stability in rat plasma = conditions: 24 h, 37°C
[5] = Stability in rat liver microsomes; conditions: 24 h, 37°C
[6] = tested on: adult WT murine cardiac ventricular myocytes; assay: Contractile response; type: cell-based, mouse; conditions: vs control basal condition, P<0.05
[7] = tested on: CSQ-overexpressing mice with heart failure; conditions: chronic administration; cited from earlier work
cardiac P2X4R = conditions: cardiomyocytes obtained from the CSQ mouse; cited from earlier work
aorta ring preparations = conditions: cited from earlier work

| Compound | protection in the LAD model (increase in FS), in words [1] | protection in ex vivo working heart (+dP/dt), in words [2] | cardioprotection in CSQ model, in words ([3]; infusion) | further results |
| --- | --- | --- | --- | --- |
| CCOP(=O)(OCC)OC[C@@]12C[C@@H]1[C@@H](n1cnc3c(N)nc(Cl)nc31)[C@H](O)[C@@H]2O [Compound 7, (1’S,2’R,3’S,4’R,5’S)-4-(6-Amino-2-chloro-9H-purin-9-yl)-1-[(diethylphosphate)methyl]-2,3-(dihydroxy)-bicyclo[3.1.0]hexane] | highly protective | able to improve function | cardioprotective activity was seen | – |
| CCOP(=O)(C[C@@]12C[C@@H]1[C@@H](n1cnc3c(N)nc(Cl)nc31)[C@H](O)[C@@H]2O)OCC [Compound 14, Diethyl-(1’S,2’R,3’S,4’R,5’S)-4’-(6-amino-2-chloropurin-9-yl)-2’,3’-(hydroxy)-bicyclo[3.1.0]hexane phosphonate] | – | did not protect | inactive | stability in aqueous medium at pH 1 ([4]; 50°C): unable to demonstrate any hydrolysis; stability in aqueous medium at pH 11 ([4]; 50°C): unable to demonstrate any hydrolysis; stability in the presence of rat plasma (Stability in rat plasma): stable; stability in the presence of microsomes from rat liver [5]: unable to demonstrate any hydrolysis |
| Nc1nc(Cl)nc2c1ncn2[C@H]1[C@H](O)[C@H](O)[C@]2(CSP(=O)(O)O)C[C@H]12 [Compound 5, (1’S,2’R,3’S,4’R,5’S)-4-(6-Amino-2-chloro-purin-9-yl)-2,3-(dihydroxy)-1-[monophosporothioate]-bicyclo-[3.1.0]hexane] | – | able to improve function | could protect | – |
| CCOP(=S)(OCC)SC[C@@]12C[C@@H]1[C@@H](n1cnc3c(N)nc(Cl)nc31)[C@H](O)[C@@H]2O [Compound 13, (1’S,2’R,3’S,4’R,5’S)-4-(6-Amino-2-chloro-purin-9-yl)-1-[O,O-diethyl S-methyl phosphorodithioate]-2,3-(dihydroxyl)-bicyclo-[3.1.0]hexane] | protective | – | – | – |
| CC(C)OP(=O)(OC[C@@]12C[C@@H]1[C@@H](n1cnc3c(N)nc(Cl)nc31)[C@H](O)[C@@H]2O)OC(C)C [Compound 8, (1’S,2’R,3’S,4’R,5’S)-4-(6-Amino-2-chloro-9H-purin-9-yl)-1-[(diisopropylphosphate)methyl]-2,3-(dihydroxy)-bicyclo[3.1.0]hexane] | highly protective | – | – | – |
| CC(C)(C)OP(=O)(OC[C@@]12C[C@@H]1[C@@H](n1cnc3c(N)nc(Cl)nc31)[C@H](O)[C@@H]2O)OC(C)(C)C [Compound 9, (1’S,2’R,3’S,4’R,5’S)-4-(6-Amino-2-chloro-9H-purin-9-yl)-2,3-(dihydroxy)-1-[(t-butylphosphate)methyl]-bicyclo[3.1.0]hexane] | – | able to improve function | – | – |
| [2H]C([2H])(OP(=O)(O)O)[C@@]12C[C@@H]1[C@@H](n1cnc3c(N)nc(Cl)nc31)[C@H](O)[C@@H]2O [Compound 4, (1’S,2’R,3’S,4’R,5’S)-4-(6-Amino-2-chloro-9H-purin-9-yl)-1-[phosphoryloxydideuteromethyl]-2,3-diol-bicyclo[3.1.0]hexane] | significantly protective | – | – | – |
| Nc1nc(Cl)nc2c1ncn2[C@H]1[C@H](O)[C@H](O)[C@]2(CCP(=O)(O)O)C[C@H]12 [Compound 3, (1’S,2’R,3’S,4’R,5’S)-4’-(6-amino-2-chloropurin-9-yl)-2’,3’-(dihydroxy)-1’-(phosphonoethylene)-bicyclo[3.1.0]hexane] | – | – | – | contraction shortening (CS) [6]: modest increase in contraction shortening; cardioprotection in CSQ mouse model [7]: protective |
| CCOP(=O)(OCC)SC[C@@]12C[C@@H]1[C@@H](n1cnc3c(N)nc(Cl)nc31)[C@H](O)[C@@H]2O [Compound 11, (1’S,2’R,3’S,4’R,5’S)-4-(6-Amino-2-chloro-purin-9-yl)-1-[O,O-diethyl S-methyl phosphorothioate]-2,3-(dihydroxyl)-bicyclo-[3.1.0]hexane] | protective | – | – | – |
| [2H]C([2H])(OP(=O)(OCC)OCC)[C@@]12C[C@@H]1[C@@H](n1cnc3c(N)nc(Cl)nc31)[C@H](O)[C@@H]2O [Compound 10, (1’S,2’R,3’S,4’R,5’S)-4-(6-Amino-2-chloro-9H-purin-9-yl)-2,3-(dihydroxyl)-1-[(di-ethylphosphate)dideuteromethyl]bicyclo[3.1.0]hexane] | did not fully protect | – | – | – |
| Nc1nc(I)nc2c1ncn2[C@H]1[C@H](O)[C@H](O)[C@]2(CP(=O)(O)O)C[C@H]12 [Compound 6, (1’S,2’R,3’S,4’R,5’S)-4’-(6-Amino-2-iodoropurin-9-yl)-2’,3’-(dihydroxy)-1’-(phosphonomethylene)-bicyclo[3.1.0]hexane] | – | able to improve function | abolished protection | effect on FS in CSQ mice ([3]; infusion, compared to vehicle): did not improve FS; LV wall thickness in CSQ mice, in words ([3]; vs NS-infused CSQ mice): did not improve FS (Table S2) or prevent LV wall thinning |
| Nc1nc(Cl)nc2c1ncn2[C@H]1[C@H](O)[C@H](O)[C@@]2(COP(=O)(O)O)C[C@@H]12 [Compound 1, (1’S,2’R,3’S,4’R,5’S)-4-(6-amino-2-chloro-9H-purin-9-yl)-1-[phosphoryloxy-methyl]bicyclo[3.1.0]hexane-2,3-diol] | – | – | – | contraction shortening (CS) [6]: modest increase in contraction shortening; stability to acidic conditions ([4]; pH 1.5, 37°C, data not shown): stable; cardioprotection in CSQ mouse model [7]: rescued the hypertrophic and heart failure phenotype; P2X-like current in cardiomyocytes (cardiac P2X4R): induced a current that is characteristic of the action of the cardiac P2X4R; vasodilator action (aorta ring preparations): devoid of any vasodilator action |

From article PMC3574217 (Journal of medicinal chemistry, 2013)
